Measurements as given in PubChem BioAssay AID1259411 (Chemical Carcinogenesis Research Information System (CCRIS), 2018).
Calls of active or inactive are those of the source. No rule for the calls is given here.

Tested on: rodent carcinogenicity bioassays, tumor incidence
Test: CCRIS carcinogenicity studies
Procedure, shortened: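 Archive of carcinogenicity, mutagenicity, tumor promotion and tumor inhibition results drawn from journals, NCI reports and other sources, expert-reviewed; covers 1985-2011 and is no longer updated.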

Structure (SMILES): c1ccc2c(c1)cc1ccc3cc4ccccc4c4ccc2c1c34
- carcinogen call (Species: HAMSTER, Route: SUBCUTANEOUS, Tumor Site: Type of Lesion: INJECTION SITE): active; positive
- carcinogen call (Species: MOUSE, Route: DERMAL, Tumor Site: Type of Lesion: INTEGUMENTARY SYSTEM (SKIN)): active; positive
- carcinogen call (Species: MOUSE, Route: SUBCUTANEOUS, Tumor Site: Type of Lesion: INJECTION SITE): active; positive

Structure (SMILES): C1CN1c1nc(N2CC2)nc(N2CC2)n1
- carcinogen call (Species: MOUSE, Route: INTRAPERITONEAL, Tumor Site: Type of Lesion: OVARIES, LUNG, THYMUS GLAND, Tumor Site: Type of Lesion: OVARIES, LUNG, THYMUS GLAND): active; positive

Structure (SMILES): CCCCCCCCS(=O)C(C)Cc1ccc2c(c1)OCO2 (configuration not stated)
- carcinogen call (Species: MOUSE, Strain/Sex: B6C3F1/FEMALE, Route: ORAL, Dose: 0, 295, 754 PPM IN DIET, TWA, Dose: 0, 295, 754 PPM IN DIET, TWA): inactive; negative
- carcinogen call (Species: MOUSE, Strain/Sex: B6C3F1/MALE, Route: ORAL, Dose: 0, 350, 700 PPM IN DIET, Dose: 0, 350, 700 PPM IN DIET, Tumor Site: Type of Lesion: LIVER: HEPATOCELLULAR CARCINOMA): active; positive
- carcinogen call (Species: RAT, Strain/Sex: F344/FEMALE, Route: ORAL, Dose: 0, 3000, 6000 PPM IN DIET, Dose: 0, 3000, 6000 PPM IN DIET): inactive; negative
- carcinogen call (Species: RAT, Strain/Sex: F344/MALE, Route: ORAL, Dose: 0, 1500, 3000 PPM IN DIET, Dose: 0, 1500, 3000 PPM IN DIET): inactive; negative

Structure (SMILES): C=CN(C)N=O
- carcinogen call (Species: RAT, Route: INHALATION, Tumor Site: Type of Lesion: NASAL CAVITY): active; positive
- carcinogen call (Species: RAT, Route: ORAL, Tumor Site: Type of Lesion: ESOPHAGUS): active; positive

Structure (SMILES): CCCCN(N=O)C(=O)CCC
- carcinogen call (Species: RAT, Strain/Sex: F344/MALE,FEMALE, Route: SUBCUTANEOUS, Dose: 38 UMOL/KG IN OLIVE OIL 1/WK FOR 10 WK, Tumor Site: Type of Lesion: INJECTION SITE: MALIGNANT FIBROUS HISTIOCYTOMA, LUNG: ADENOMA): active; positive

Structure (SMILES): O=[N+]([O-])c1ccc2ncccc2c1
- carcinogen call (Species: RAT, Strain/Sex: F344/MALE,FEMALE, Route: ORAL, Dose: 0.05% IN DIET FOR 2 YR): inactive; negative

Structure (SMILES): O=NC(=O)CCNCCO
- carcinogen call (Species: RAT, Strain/Sex: F344/FEMALE, Route: ORAL, Dose: 0, 50 MG/L DRINKING WATER 5 D/WK FOR 50 WK (TOTAL DOSE 250 MG) (STUDY DURATION: LIFESPAN), Tumor Site: Type of Lesion: ESOPHAGUS: CARCINOMA, PAPILLOMA, TONGUE: CARCINOMA, PAPILLOMA): active; positive

Structure (SMILES): O=C([O-])CN(CC(=O)[O-])CC(=O)[O-].[Cu+2]
- carcinogen call (Species: RAT, Strain/Sex: WISTAR/MALE, Route: INTRAPERITONEAL, Tumor Site: Type of Lesion: KIDNEY: RENAL CELL CARCINOMA): active; positive

Structure (SMILES): CCCCC/C=N/N(C)C=O
- carcinogen call (Species: MOUSE, Strain/Sex: SWISS/FEMALE, Route: GAVAGE, Dose: 0, 50, 100 UG/G/BW IN 0.01 ML OF PROPYLENE GLYCOL 1/WK FOR 52 WK (STUDY DURATION: 130 WK), Dose: 0, 50, 100 UG/G/BW IN 0.01 ML OF PROPYLENE GLYCOL 1/WK FOR 52 WK (STUDY DURATION: 130 WK), Tumor Site: Type of Lesion: LUNG: ADENOMA OR ADENOCARCINOMA, LIVER: HEPATOMA OR CARCINOMA): active; positive
- carcinogen call (Species: MOUSE, Strain/Sex: SWISS/MALE, Route: GAVAGE, Dose: 0, 50, 100 UG/G/BW IN 0.01 ML OF PROPYLENE GLYCOL 1/WK FOR 52 WK (STUDY DURATION: 130 WK), Dose: 0, 50, 100 UG/G/BW IN 0.01 ML OF PROPYLENE GLYCOL 1/WK FOR 52 WK (STUDY DURATION: 130 WK), Tumor Site: Type of Lesion: LUNG: ADENOMA AND ADENOCARCINOMA, PREPUTIAL GLAND: SQUAMOUS CELL PAPILLOMA OR SQUAMOUS CELL CARCINOMA OR ADENOMA): active; positive

Structure (SMILES): CCC(C)[C@H]1O[C@]2(CC[C@@H]1C)CC1C[C@@H](C/C=C(\C)[C@@H](O[C@H]3C[C@H](OC)[C@@H](OC4C[C@H](OC)[C@@H](O)[C@H](C)O4)[C@H](C)O3)[C@@H](C)/C=C/C=C3\CO[C@@H]4[C@H](O)C(C)=C[C@@H](C(=O)O1)[C@]34O)O2 (some centres not stated) (tested in a mixture with another compound)
- carcinogen call (Species: RAT, Strain/Sex: WISTAR/MALE, Route: ORAL, Dose: 0, 2 PPM IN DIET FOR DURATION OF STUDY (STUDY DURATION: 1 YR)): inactive; negative

Structure (SMILES): C=CC=O
- carcinogen call (Species: MOUSE, Strain/Sex: B6C3F1/FEMALE, Route: INTRAPERITONEAL, Dose: 0, 75 NMOL TOTAL DOSE, 1/3 AND 2/3 OF THE TOTAL DOSE ADMINISTERED AT 8 AND 15 DAYS OF AGE RESPECTIVELY, ANIMALS TERMINAT): inactive; negative
- carcinogen call (Species: MOUSE, Strain/Sex: B6C3F1/FEMALE, Route: INTRAPERITONEAL, Dose: 0, 150 NMOL TOTAL DOSE, 1/3 AND 2/3 OF THE TOTAL DOSE ADMINISTERED AT 8 AND 15 DAYS OF AGE RESPECTIVELY, ANIMALS TERMINA): inactive; negative
- carcinogen call (Species: MOUSE, Strain/Sex: B6C3F1/MALE, Route: INTRAPERITONEAL, Dose: 0, 75 NMOL TOTAL DOSE, 1/3 AND 2/3 OF THE TOTAL DOSE ADMINISTERED AT 8 AND 15 DAYS OF AGE RESPECTIVELY, ANIMALS TERMINAT): inactive; negative
- carcinogen call (Species: MOUSE, Strain/Sex: B6C3F1/MALE, Route: INTRAPERITONEAL, Dose: 0, 150 NMOL TOTAL DOSE, 1/3 AND 2/3 OF THE TOTAL DOSE ADMINISTERED AT 8 AND 15 DAYS OF AGE RESPECTIVELY, ANIMALS TERMINA): inactive; negative
- carcinogen call (Species: MOUSE, Strain/Sex: CD-1/FEMALE, Route: GAVAGE, Dose: 0, 0.5, 2, 4.5 MG/KG (STABILIZED WITH 0.25%-0.3% HYDROQUINONE) 1/D FOR 18 MO (STUDY DURATION: 18 MO), Dose: 0, 0.5, 2, 4.5 MG/KG (STABILIZED WITH 0.25%-0.3% HYDROQUINONE) 1/D FOR 18 MO (STUDY DURATION: 18 MO)): inactive; negative
- carcinogen call (Species: MOUSE, Strain/Sex: CD-1/MALE, Route: GAVAGE, Dose: 0, 0.5, 2, 4.5 MG/KG (STABILIZED WITH 0.25%-0.31 HYDROQUINONE) 1/D FOR 18 MO (STUDY DURATION: 18 MO), Dose: 0, 0.5, 2, 4.5 MG/KG (STABILIZED WITH 0.25%-0.31 HYDROQUINONE) 1/D FOR 18 MO (STUDY DURATION: 18 MO)): inactive; negative
- carcinogen call (Species: RAT, Strain/Sex: F344/FEMALE, Route: ORAL, Dose: 0, 625 MG/L IN DRINKING WATER 5 D/WK FOR 100 WK (STUDY DURATION: 130 WK)): inactive; negative
- carcinogen call (Species: RAT, Strain/Sex: F344/MALE, Route: INTRAPERITONEAL, Dose: 0, 2 MG/KG 2/WK FOR 9 WK THEN 1.5 MG/KG ONCE IN WK 4 THEN 2/WK FOR 7 WK FOLLOWED BY 1 MG/KG ONCE IN WK 12, TWICE IN WK 1): inactive; negative
- carcinogen call (Species: RAT, Strain/Sex: F344/MALE, Route: ORAL, Dose: 0, 100, 250, 625 MG/L IN DRINKING WATER 5 D/WK FOR UP TO 120 WK (STUDY DURATION: 130 WK), Dose: 0, 100, 250, 625 MG/L IN DRINKING WATER 5 D/WK FOR UP TO 120 WK (STUDY DURATION: 130 WK)): inactive; negative
- carcinogen call (Species: RAT, Strain/Sex: SPRAGUE-DAWLEY/FEMALE, Route: GAVAGE, Dose: 0, 0.05, 0.5, 2.5 MG/KG/D IN WATER FOR 102 WK (STUDY DURATION: 24 MO), Dose: 0, 0.05, 0.5, 2.5 MG/KG/D IN WATER FOR 102 WK (STUDY DURATION: 24 MO)): inactive; negative
- carcinogen call (Species: RAT, Strain/Sex: SPRAGUE-DAWLEY/MALE, Route: GAVAGE, Dose: 0, 0.05, 0.5, 2.5 MG/KG/D IN WATER FOR 102 WK (STUDY DURATION: 24 MO), Dose: 0, 0.05, 0.5, 2.5 MG/KG/D IN WATER FOR 102 WK (STUDY DURATION: 24 MO)): inactive; negative

Structure (SMILES): O=C([O-])C(=O)[O-].O=C([O-])C(=O)[O-].[K+].[K+].[O]=[Ti+2]
- carcinogen call (Species: MOUSE, Strain/Sex: SWISS/FEMALE, Route: ORAL, Dose: 0, 5 PPM IN DRINKING WATER FOR DURATION OF STUDY (STUDY DURATION: LIFE SPAN)): inactive; negative
- carcinogen call (Species: MOUSE, Strain/Sex: SWISS/MALE, Route: ORAL, Dose: 0, 5 PPM IN DRINKING WATER FOR DURATION OF STUDY (STUDY DURATION: LIFE SPAN)): inactive; negative

Structure (SMILES): CC1CC(C)(C)CC(OOC(C)(C)C)(OOC(C)(C)C)C1 (configuration not stated)
- carcinogen call (Species: MOUSE, Strain/Sex: B6C3F1/FEMALE, Route: ORAL, Dose: 0, 0.25, 0.5% IN DIET FOR 78 WK (STUDY DURATION: 83 WK), Dose: 0, 0.25, 0.5% IN DIET FOR 78 WK (STUDY DURATION: 83 WK)): inactive; negative
- carcinogen call (Species: MOUSE, Strain/Sex: B6C3F1/MALE, Route: ORAL, Dose: 0, 0.25, 0.5% IN DIET FOR 78 WK (STUDY DURATION: 83 WK), Dose: 0, 0.25, 0.5% IN DIET FOR 78 WK (STUDY DURATION: 83 WK)): inactive; negative
